Laboratory results as given in US9480261B1, “Insecticidal strain of Serratia for control of brown marmorated stink bug (BMSB), Halyomorpha halys” (priority 2014, dated 2016).

Columns and labels:
Experiment in all cases: Antibiotic susceptibility, disk method on L-agar; as to Antibiotic resistance of strain ATCC 13880: key: R—Resistant; I—Intermediate; S—Susceptible; as to Antibiotic resistance of strain BF1: key: R—Resistant; I—Intermediate; S—Susceptible; as to Antibiotic resistance of strain NRRL B-50575: key: R—Resistant; I—Intermediate; S—Susceptible; as to Antibiotic resistance of strain TBSB-08: key: R—Resistant; I—Intermediate; S—Susceptible; as to Antibiotic resistance of strain TBSB-09: key: R—Resistant; I—Intermediate; S—Susceptible
ATCC 13880 = format: cell-based, Serratia marcescens; details: 25° C.
Protocol: (§1) Antibiotic Susceptibility: Two agar plates were streaked for growth with NRRL B-50575, and 8 paper discs, each soaked in a different antibiotic, were placed on the agar, with 4 discs on each plate. Disks containing the following antibiotics were used/obtained from Remel (Lenexa Kans.): ampicillin (10 μg), chloramphenicol (30 μg), erythromycin (30 μg), kanamycin (30 μg), neomycin (30 μg), tetracycline (30 μg), triple sulfa (300 μg) and vancomycin (30 μg). The plates were incubated for 24 hours at 25° C., and after this incubation period the zone of inhibition around each disc was measured.
(§2) The diffusible pink pigment (FIG. 4) produced by NRRL B-50575 (TP 07) was different from the red pigment of BF1 and ATCC 13880 (ATCC-SM), and the pigment was made at temperatures below 25° C. Antibiotic susceptibility was determined using the disk method per manufacturer's instructions on L-agar, incubated at 25° C. (Table 6). All of the pink bacterial strains had the similar antibiotic resistance. They differed in sensitivity to tetracycline, kanamycin, and chloramphenicol. They also differed from BF1 and ATCC 13880 in sensitivity to erythromycin.

Serratia marcesans BF1 = format: cell-based, Serratia marcescens; details: 25° C.
Protocol: as §1, §2

TBSB-08 = format: cell-based; details: 25° C.
Protocol: as §1, §2

TBSB-09 = format: cell-based; details: 25° C.
Protocol: as §1, §2

NRRL B-50575 = format: cell-based, Serratia; details: for Antibiotic resistance of strain NRRL B-50575: disk method, L-agar, 25° C.; for resistance to antibiotics of NRRL B-50575 (in words): list of identifying characteristics
Protocol: as §1, §2

Row | Compound | Antibiotic resistance of strain ATCC 13880 (ATCC 13880) | Antibiotic resistance of strain BF1 (Serratia marcesans BF1) | Antibiotic resistance of strain TBSB-08 (TBSB-08) | Antibiotic resistance of strain TBSB-09 (TBSB-09) | Antibiotic resistance of strain NRRL B-50575 (NRRL B-50575) | resistance to antibiotics of NRRL B-50575 (in words) (NRRL B-50575)
1 | CC1(C)S[C@@H]2[C@H](NC(=O)[C@H](N)c3ccccc3)C(=O)N2[C@H]1C(=O)O [Ampicillin, ampicillin] | R | R | R | R | R | resistant
2 | neomycin | S | S | S | S | S | susceptible
3 | CN(C)[C@@H]1C(O)=C(C(N)=O)C(=O)[C@@]2(O)C(O)=C3C(=O)c4c(O)cccc4[C@@](C)(O)[C@H]3C[C@@H]12 [Tetracycline, tetracycline] | R | R | I | R | I | –
4 | O=C(N[C@H](CO)[C@H](O)c1ccc([N+](=O)[O-])cc1)C(Cl)Cl [Chloramphenicol, chloramphenicol] | I | S | I | S | I | intermediate
5 | CC[C@H]1OC(=O)[C@H](C)[C@@H](O[C@H]2C[C@@](C)(OC)[C@@H](O)[C@H](C)O2)[C@H](C)[C@@H](O[C@@H]2O[C@H](C)C[C@H](N(C)C)[C@H]2O)[C@](C)(O)C[C@@H](C)C(=O)[C@H](C)[C@@H](O)[C@]1(C)O [Erythromycin, erythromycin] | I | I | R | R | R | resistant
6 | NC[C@H]1O[C@H](O[C@H]2[C@H](O)[C@@H](O[C@H]3O[C@H](CO)[C@@H](O)[C@H](N)[C@H]3O)[C@H](N)C[C@@H]2N)[C@H](O)[C@@H](O)[C@@H]1O [Kanamycin, kanamycin] | S | S | I | S | S | –
7 | CN[C@H](CC(C)C)C(=O)N[C@H]1C(=O)N[C@@H](CC(N)=O)C(=O)N[C@H]2C(=O)N[C@H]3C(=O)N[C@H](C(=O)N[C@H](C(=O)O)c4cc(O)cc(O)c4-c4cc3ccc4O)[C@H](O)c3ccc(c(Cl)c3)Oc3cc2cc(c3O[C@@H]2O[C@H](CO)[C@@H](O)[C@H](O)[C@H]2O[C@H]2C[C@](C)(N)[C@H](O)[C@H](C)O2)Oc2ccc(cc2Cl)[C@H]1O [Vancomycin, vancomycin] | R | R | R | R | R | resistant
